Key:
[1] = target: T1, recombinant human brain-derived phosphodiesterase 4D3 (Homo sapiens, UniProt Q08499); test: Assay of phosphodiesterase IV-inhibiting effect (SPA, [3H]cAMP); type: biochemical; conditions: recombinant human brain-derived phosphodiesterase 4D3, SPA with [3H]cAMP, 30 minutes at 30° C.; read-out: PDE IV-inhibiting effect (IC50)
T1 construct: GST (N); made in house; host or cells: Escherichia coli BL21 (BL21/pPDE4D3, FERM BP-7075)
Source text: Experiment Example 1 Assay of Phosphodiesterase IV-inhibiting Effect
(1) Human Brain-derived Phosphodiesterase 4D3-encoding Gene Cloning
From a human brain cDNA library, a gene encoding phosphodiesterase 4D3 was cloned. […] The resultant PCR product was subjected to an agarose gel electrophoresis and an about 2.4 kb DNA fragment was recovered. This fragment was made blunt using a Pfu DNA polymerase ([…]) and then a phosphodiesterase 4D3 gene was cloned using Zero Blunt PCR Cloning Kit (Invitrogen).
(2) Construction of E.coli Expression Vector
The plasmid obtained in Section (1) described above was digested with a restriction enzyme EcoRI (Takara) and subjected to an agarose gel electrophoresis to recover an about 2.4 kb DNA fragment. […] This cDNA fragment was transformed into an E.coli BL21 (FUNAKOSHI) using a ligation solution, whereby obtaining an Escherichia coli BL21/pPDE4D3 capable of expressing the phosphodiesterase 4D3 gene.
(3) Expression of Recombinant Human Brain-derived Phosphodiesterase 4D3 in Escherichia coli and Purification Thereof
Using the Escherichia coli BL21/pPDE4D3 obtained in Section (2) described above, a recombinant human brain-derived phosphodiesterase 4D3 was obtained. The expression and purification of E. coli were in accordance with the protocol attached to GST Gene Fusion System (Pharmacia).
(4) Assay of Phosphodiesterase IV-inhibiting Effect
To a 96-well plate (OPTI plate, Packard), 10 μl of a buffer solution [0.5 M Tris-HCl (pH7.5), 83 mM MgCl2, 17 mM EGTA], 10 μl of the recombinant human brain-derived phosphodiesterase 4D3 (0.0034 mg/mL) obtained in […] described above, 65 μl of Ultrapure water, 5 μl of an inhibitor sample and 10 μl of [^3H]cAMP were added and reacted for 30 minutes at 30° C. After completing the reaction, 50 μl of SPA beads solution [18 mg/mL Yttrium silicate beads, 18 mM ZnSO4] was added, allowed to stand at room temperature for about 20 minutes, and the radioactivity was counted using a scintillation counter (Topcount, Packard). […] This assay system was employed to determine the recombinant human brain-derived phosphodiesterase-inhibiting effect (IC50) of each inventive compound.

[2] = tested on: antigen-induced bronchoconstriction; test: Inhibiting effect on antigen-induced bronchoconstriction in guinea pigs (modified Konzett-Rossler method); type: in vivo; conditions: guinea pig, 1 mg/kg intravenously 5 minutes before the antigen challenge, vs control group
Method: Example 2 Inhibiting Effect on Antigen-induced Bronchoconstriction in Guinea Pigs
(1) Preparation of Rabbit Anti-ovalbumin (OA) Serum
A white rabbit (body weight: about 3 kg; New Zealand white: […] LABES) was immunized by an intramuscular administration of 1.0 mL of an emulsion of 0.5 mL of a 10% OA (Grade III, Sigma) solution and 0.5 mL of Freund Complete Adjuvant (WAKO PURE CHEMICAL […], LTD.). This procedure was conducted once every week repetitively 4 times in total. One week after the final immunization, the whole blood was sampled. The blood sample was allowed to stand at room temperature for 1 hour or longer, and then in a refrigeration room for a day. On the following day, the serum fraction was isolated and centrifuged (3000 rpm, 10 min.), and the supernatant was stored as an antiserum at −20° C.
(2) Antigen-induced Bronchoconstriction
The bronchoconstriction was measured by a modified Konzett-Rossler method. Each male Hartley guinea pig weighing 400 to 500 g (NIPPON SLC, Shizuoka) was anesthetized with ether, treated intravenously with 1.0 mL of a 8- to 16-fold diluted anti-OA serum, and subjected to an experiment after 16 to 24 hours. Under an anesthesia with urethane (1.2 g/kg ip) (Aldrich), a tracheal cannula was inserted, and gallamine triethiodide (1 mg/kg iv) (Sigma) was administered to arrest the spontaneous respiration. The animal was ventilated artificially using an artificial respirator (Harvard model 683) at 70 respirations/minutes, with each ventilation volume of 2 to 3 mL and initial load of 10 cmH2O, and the intratracheal pressure was measured at the side arm of the tracheal cannula using a differential pressure type transducer. Mepyramine maleate (1.0 mg/kg) (Sigma) and propranolol (1.0 mg/kg) (Sigma) were administered intravenously 2 minutes after the administration of gallamine triethiodide, and after further 2 minutes the OA antigen (1.0 mg/kg) was administered intravenously to induce the bronchoconstriction.
A compound of Example was dissolved in 25% dimethylacetamide, 25% polyethylene glycol 400 and 50% physiological saline, and administered intravenously 5 minutes before the antigen challenge at a dose of 1 mg/kg. Percent inhibition was calculated based on the comparison with a control group (intravenous administration of a mixture of 25% dimethylacetamide, 25% polyethylene glycol 400 and 50% physiological saline).

T1 sequence (Q08499 1-673 isoform Q08499-2): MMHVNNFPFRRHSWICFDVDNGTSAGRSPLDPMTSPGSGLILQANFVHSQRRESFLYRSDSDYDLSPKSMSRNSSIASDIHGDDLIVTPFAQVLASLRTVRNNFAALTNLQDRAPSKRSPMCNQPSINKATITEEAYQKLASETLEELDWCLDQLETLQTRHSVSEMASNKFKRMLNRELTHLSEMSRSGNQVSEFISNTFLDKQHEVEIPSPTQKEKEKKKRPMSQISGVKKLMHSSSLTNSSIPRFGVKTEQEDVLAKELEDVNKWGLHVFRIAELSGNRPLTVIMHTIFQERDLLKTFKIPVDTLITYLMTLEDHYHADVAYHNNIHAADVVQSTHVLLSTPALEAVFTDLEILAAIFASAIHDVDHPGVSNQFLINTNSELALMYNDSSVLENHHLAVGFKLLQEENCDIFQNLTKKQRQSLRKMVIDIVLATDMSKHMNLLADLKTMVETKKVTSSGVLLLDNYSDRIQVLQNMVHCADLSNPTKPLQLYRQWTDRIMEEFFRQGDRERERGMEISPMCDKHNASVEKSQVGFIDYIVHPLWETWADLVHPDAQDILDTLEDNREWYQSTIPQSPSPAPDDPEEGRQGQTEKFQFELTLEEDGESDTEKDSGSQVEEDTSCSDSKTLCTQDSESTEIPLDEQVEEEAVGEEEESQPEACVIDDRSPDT

Structure (SMILES) | IC50 [1] | % inhibition in bronchoconstriction [2]
COc1cc2c(c3c1OC(C)(C)C3)C(c1cccc(N(S(C)(=O)=O)S(C)(=O)=O)c1)=NC(C)(C)C2 [Example 45, N-(Methylsulfonyl)-N-[3-(3.4,8,9-tetrahydro-6-methoxy-3,3,8,8-tetramethylfuro[2,3-h]isoquinolin-1-yl)phenyl]methanesulfonamide] | 0.00936 µM | 44%
COc1cc2c(c3c1OC(C)(C)C3)C(c1cccc(-c3cccc(NC(C)=O)c3)c1)=NC(C)(C)C2 [Example 263, N-[3′-(3,4,8,9-Tetrahydro-6-methoxy-3,3,8,8-tetramethylfuro[2,3-h]isoquinolin-1-yl)[1,1′-biphenyl]-3-yl]acetamide] | 0.0137 µM | 59%
COc1cc2c(c3c1OC(C)(C)C3)C(c1cccc(NC(=O)C[S+](C)[O-])c1)=NC(C)(C)C2 (centres unmarked) [Example 39, 2-(Methylsulfinyl)-N-[3-(3,4,8,9-tetrahydro-6-methoxy-3,3,8,8-tetramethylfuro[2,3-h]isoquinolin-1-yl)phenyl]acetamide] | 0.0194 µM | 45%
COc1cc2c(c3c1OC(C)(C)C3)C(c1cccc(C(=O)NCCc3ccncc3)c1)=NC(C)(C)C2 [Example 149, N-[2-(4-Pyridinyl)ethyl]-3-(3,4.8,9-tetrahydro-6-methoxy-3,3,8,8-tetramethylfuro[2,3-h]isoquinolin-1-yl)benzamide] | 0.0401 µM | 58%
CCNC(=O)c1cccc(C2=NC(C)(C)Cc3cc(OC)c4c(c32)CC(C)(C)O4)c1 [Example 180, N-Ethyl-3-(3,4,8,9-tetrahydro-6-methoxy-3,3,8,8-tetramethylfuro[2,3-h]isoquinolin-1-yl)benzamide] | 0.123 µM | 57%
COc1cc2c(c3c1OC(C)(C)C3)C(c1cccc(C(=O)NCC(N)=O)c1)=NC(C)(C)C2 [Example 157, N-(2-Amino-2-oxoethyl)-3-(3,4,8,9-tetrahydro-6-methoxy-3,3,8,8-tetramethylfuro[2,3-h]isoquinolin-1-yl)benzamide] | 0.082 µM | 57%
CNC(=O)c1cccc(C2=NC(C)(C)Cc3cc(OC)c4c(c32)CC(C)(C)O4)c1 [Example 179, N-Methyl-3-(3,4,8,9-tetrahydro-6-methoxy-3,3,8,8-tetramethylfuro[2,3-h]isoquinolin-1-yl)benzamide] | 0.124 µM | 46%
